Reference: patent US20170035847A1, “COMPOSITIONS AND METHODS FOR TREATING INFLAMMATION-ASSOCIATED DISORDERS OF THE GASTROINTESTINAL TRACT” (TherapyX, Inc., priority 2015, published 2017)

Assays:
[1] = in vivo; conditions: rat, iv
Procedure: In addition to the studies discussed above a bioavailability and pharmacokinetic study of TGFβ and ATRA was conducted following a single oral administration of PIN®-encapsulated TGFβ and ATRA in male rats, when compared to intravenous administration.

[2] = system: DSS-induced colitis in C57Black6 mice; assay: Dextran sodium sulphate-induced colitis; type: in vivo, mouse
Source text: Animals: Mice 6-8-weeks old (C57Black6 mice [males: n=6; females: n=6; 12 per group]) were purchased from Harlan Nossan, San Pietro al Natisone, Udine, Italy, and housed in a vivarium under pathogen-free conditions at the Department of Biomedical Sciences in the School of Medicine at the University of Catania [Catania, Italy]. The mice were kept under standard laboratory conditions with free access to food and water. They were allowed to adapt for 1 week before starting the study. The care and use of laboratory animals was in accordance with a University of Catania IACUC-approved animal use protocol.
Colitis was induced with 3% dextran sodium sulphate [50 kDa; Sigma-Aldrich] in drinking water for 4 days. The first treatment was given 24 h before induction of colitis [Day −1] and continued every other day for 6 days.
Disease score, SAA levels and histological analysis were performed as above.
To more broadly test the ability of oral TGFβ/ATRA-loaded microspheres to ameliorate IBD, a second model, the DSS-induced colitis model, was employed. Acute colitis was induced in C57Black6 mice [equal numbers of males and females, […]] with 3% DSS[50 kDa] in drinking water for 4 days. […] Mice were monitored daily for overall disease score and weight loss. At the end of 7 days, animals were sacrificed, sera taken and colons harvested, weighed, and measured on Day 7 [24 h after final treatment]. […] SAA levels, colon weight-to-length ratios, and histology scores determined. […] Mice were sacrificed 7 days after first treatment and levels of SAA determined [FIG. 10C]. […] The colons of sacrificed mice were also analyzed for colon weight-to-length ratio [FIG. 10D]. […] Next, ascending, transverse, and descending colon from naïve C57Black6 [no disease], untreated, TGFβ/ATRA-treated, and control [fed blank particles] mice were fixed in 10% formalin, embedded in paraffin, sectioned [5 μm] and stained with H & E. Five randomly-selected sections from each mouse were scored [Table 2] for disease severity. […]

CC1=C(/C=C/C(C)=C/C=C/C(C)=C/C(=O)O)C(C)(C)CCC1 [ATRA, all-trans retinoic acid]
AUC ([1]; male, 1.6 mg/kg): 3500 ng·h/mL
half-life ([1]; male, 1.6 mg/kg): 34 min

O=C(O)c1cc(/N=N/c2ccc(S(=O)(=O)Nc3ccccn3)cc2)ccc1O [sulphasalazine]
SAA levels, difference to no treatment ([2]; Day 7, TGFβ/ATRA 10 and 20 μg, sulphasalazine 50 mg/kg daily): significant
colon weight-to-length ratio ([2]; Day 7, control groups almost 40 mg/cm, p<0.01): 35 mg/cm
weight loss ([2]; TGFβ/ATRA 10 and 20 μg every other day, sulphasalazine 50 mg/kg daily oral for 7 days): neither sulphasalazine nor TGFβ/ATRA treatment was able to reduce weight loss

TGFβ: soluble unencapsulated protein, transforming growth factor β; human recombinant TGFβ (Peprotech)
Area under the curve [AUC] ([1]; 0.04 mg/kg): 10 ng·h/mL
t1/2 ([1]; 0.04 mg/kg): 5 min
